Test system: r(CUG)12-MBNL1 complex
Experiment: Inhibition of the r(CUG)12-MBNL1 complex measured by TR-FRET
Type: biochemical
Settings: 80 nM RNA, 60 nM MBNL1-His6

SMILES | IC50 (Table L) [µM] | IC50 (Table M) [µM]
Cn1c(-c2ccc(-c3nc4ccc(N)cc4n3C)cc2)nc2cc(N)ccc21 [Compound 84, 2-[4-(6-amino-1-methyl-1H-benzimidazol-2-yl)phenyl]-1-methyl-1H-benzimidazol-5-amine] | > 200 | –
COc1ccc2nc(-c3ccc(-c4nc5ccc(OC)cc5[nH]4)cc3)[nH]c2c1 [Compound 189, 1,4-Bis(6-methoxy-1H-benzo[d]imidazol-2-yl)benzene] | – | > 200
CN1C(C)(C)CC(Oc2ccc3nc(-c4ccc(-c5nc6ccc(OC7CC(C)(C)N(C)C(C)(C)C7)cc6[nH]5)cc4)[nH]c3c2)CC1(C)C [Compound 183, 1,4-bis(6-((1,2,2,6,6-pentamethylpiperidin-4-yl)oxy)-1H-benzo[d]imidazol-2-yl)benzene] | – | 114
N=C(N)Nc1ccc2nc(-c3ccc(-c4nc5ccc(NC(=N)N)cc5[nH]4)cc3)[nH]c2c1 [Compound 3, 1,1′-(2,2′-(1,4-phenylene)bis(1H-benzo[d]imidazole-6,2-diyl))diguanidine] | 27 | –
COc1ccc(-c2nc3cc(-c4ccc5[nH]c(-c6ccc(OC)cc6)nc5c4)ccc3[nH]2)cc1 [Compound 106] | > 200 | –
CN(C)CCNC(=O)CSc1ccc2nc(-c3ccc(-c4nc5ccc(SCC(=O)NCCN(C)C)cc5[nH]4)cc3)[nH]c2c1 [Compound 285, N-[2-(dimethylamino)ethyl]-2-[[2-(4-[6-[([[2-(dimethylamino)ethyl]carbamoyl]methyl)sulfanyl]-1H-1,3-benzodiazol-2-yl]phenyl)-1H-1,3-benzodiazol-6-yl]sulfanyl]acetamide] | – | > 200
CN(C)CCNC(=O)c1ccc(-c2nc3cc(-c4ccc5[nH]c(-c6ccc(C(=O)NCCCCCCCNC(=O)c7ccc(-c8nc9cc(-c%10ccc%11[nH]c(-c%12ccc(C(=O)NCCN(C)C)cc%12)nc%11c%10)ccc9[nH]8)cc7)cc6)nc5c4)ccc3[nH]2)cc1 [Compound 421] | – | 14.8
CN(C)CCCOc1ccc2nc(-c3ccc(-c4nc5ccccc5[nH]4)cc3)[nH]c2c1 [Compound 246] | – | > 200
CN(C)CCCOc1cccc2nc(-c3ccc(-c4nc5cccc(OCCCN(C)C)c5[nH]4)cc3)[nH]c12 [Compound 215, 3,3′-((2,2′-(1,4-phenylene)bis(1H-benzo[d]imidazole-7,2-diyl))bis(oxy))bis(N,N-dimethylpropan-1-amine)] | – | 20.5
C[C@@H](C(=O)N(C)[C@@H](C)C(=O)N(C)[C@@H](C)C(=O)N(C)[C@@H](C)C(=O)N(CCCn1cc(COCCOCCN(C)C(=O)c2ccc(-c3nc4ccc(-c5ccc6nc(-c7ccc(C(=O)NCCN(C)C)cc7)[nH]c6c5)cc4[nH]3)cc2)nn1)CC(N)=O)N(C)C(=O)CNCCCn1cc(COCCOCCN(C)C(=O)c2ccc(-c3nc4ccc(-c5ccc6nc(-c7ccc(C(=O)NCCN(C)C)cc7)[nH]c6c5)cc4[nH]3)cc2)nn1 [Compound 430] | – | 7.7
CN(C)CCCOc1ccc(-c2nc3cc(-c4ccc5[nH]c(-c6ccc(C(=O)NCCCn7cc(CCCNC(=O)c8ccc(C9=Nc%10cc(-c%11ccc%12[nH]c(-c%13ccc(C(=O)NCCN(C)C)cc%13)nc%12c%11)ccc%10C9)cc8)nn7)cc6)nc5c4)ccc3[nH]2)cc1 [Compound 457] | – | > 200
CC(C)(C)OC(=O)NCCNC(=O)c1ccc2nc(-c3ccc(-c4nc5ccc(C(=O)NCCNC(=O)OC(C)(C)C)cc5[nH]4)cc3)[nH]c2c1 [Compound 50, di-tert-butyl(((2,2′-(1,4-phenylene)bis(1H-benzo[d]imidazole-6,6′-carbonyl))bis(azanediyl))bis(ethane-2,1-diyl))dicarbamate] | > 200 | –
N=C(NO)c1ccc2nc(-c3ccc(-c4nc5ccc(C(=N)NO)cc5[nH]4)cc3)[nH]c2c1 [Compound 25, 2,2′-(1,4-phenylene)bis(N-hydroxy-1H-benzo[d]imidazole-6-carboximidamide)] | 144 | –
N#Cc1ccc2nc(-c3ccc(-c4nc5ccc(C#N)cc5[nH]4)cc3)[nH]c2c1 [Compound 9, 2,2′-(1,4-phenylene)bis(1H-benzo[d]imidazole-6-carbonitrile)] | 26 | –
Cn1c(-c2ccc(N)cc2)nc2cc(-c3ccc4c(c3)nc(-c3ccc(N)cc3)n4C)ccc21 [Compound 122, 1,1′-dimethyl-2,2′-bis(4-aminophenyl)-1H,1′H-5,5′-bibenzimidazole] | 24 | –
CN(C)[C@H]1CC[C@H](Oc2ccc3nc(-c4ccc(-c5nc6ccc(O[C@H]7CC[C@H](N(C)C)CC7)cc6[nH]5)cc4)[nH]c3c2)CC1 [Compound 219] | – | 18.1
CN(C)CCCOc1ccc(-c2nc3cc(-c4ccc5[nH]c(-c6ccc(C(=O)NCCCn7cc(-c8cccc(NC(=O)c9ccc(-c%10nc%11cc(-c%12ccc%13[nH]c(-c%14ccc(C(=O)NCCN(C)C)cc%14)nc%13c%12)ccc%11[nH]%10)cc9)c8)nn7)cc6)nc5c4)ccc3[nH]2)cc1 [Compound 456] | – | 45.1
NC(=O)Cc1ccc(-c2nc3cc(-c4ccc5[nH]c(-c6ccc(CC(N)=O)cc6)nc5c4)ccc3[nH]2)cc1 [Compound 124, 2,2′-(1H,1′H-[5,5′-bibenzo[d]imidazole]-2,2′-diylbis(4,1-phenylene))diacetamide] | 170 | –
CN(C)Cc1cccc(COc2ccc3nc(-c4ccc(-c5nc6ccc(OCc7cccc(CN(C)C)c7)cc6[nH]5)cc4)[nH]c3c2)c1 [Compound 213, 1,1′-((((1,4-phenylenebis(1H-benzo[d]imidazole-2,6-diyl))bis(oxy))bis(methylene))bis(3,1-phenylene))bis(N,N-dimethylmethanamine)] | – | 22.8
COc1c(-c2nc3ccc(SCCCN(C)C)cc3[nH]2)ccc(-c2nc3ccc(SCCCN(C)C)cc3[nH]2)c1OC [Compound 300, 3,3′-(((2,3-dimethoxy-1,4-phenylene)bis(1H-benzo[d]imidazole-2,6-diyl))bis(sulfanediyl))bis(N,N-dimethylpropan-1-amine)] | – | > 200
CN1C(C)(C)CC(Oc2ccc(-c3nc4cc(-c5ccc6[nH]c(-c7ccc(OC8CC(C)(C)N(C)C(C)(C)C8)cc7)nc6c5)ccc4[nH]3)cc2)CC1(C)C [Compound 366] | – | > 200
CN(C)CCOCCOc1ccc(-c2nc3cc(-c4ccc5[nH]c(-c6ccc(O)cc6)nc5c4)ccc3[nH]2)cc1 [Compound 368] | – | 18
OCCCOc1ccc2nc(-c3ccc(-c4nc5ccc(OCCCO)cc5[nH]4)cc3)[nH]c2c1 [Compound 223, 3,3′-((1,4-phenylenebis(1H-benzo[d]imidazole-2,5-diyl))bis(oxy))bis(propan-1-ol)] | – | > 200
c1cn(-c2ccc3nc(-c4ccc(-c5nc6ccc(-n7ccnc7)cc6[nH]5)cc4)[nH]c3c2)cn1 [Compound 20, 1,4-bis(6-(1H-imidazol-1-yl)-1H-benzo[d]imidazol-2-yl)benzene] | > 200 | –
CN(C)CCCOC(=O)c1ccc2nc(-c3ccc(-c4nc5ccc(C(=O)OCCCN(C)C)cc5[nH]4)cc3)[nH]c2c1 [Compound 56] | 5 | –
c1cc(-c2nc3cc(-c4ccc5[nH]c(-c6ccc(OCCN7CCOCC7)cc6)nc5c4)ccc3[nH]2)ccc1OCCN1CCOCC1 [Compound 351] | – | ≥ 200
CN(C)CCCOc1ccc2nc(-c3cccc(-c4nc5ccc(OCCCN(C)C)cc5[nH]4)c3)[nH]c2c1 [Compound 253, 3,3′-((1,3-phenylenebis(1H-benzo[d]imidazole-2,6-diyl))bis(oxy))bis(N,N-dimethylpropan-1-amine)] | – | > 200

From patent US10961202B2, “Bis-benzimidazole compounds and methods of using the same” (THE SCRIPPS RESEARCH INSTITUTE, priority 2017, dated 2021)
